Columns and labels:
Assay type in all cases: in vivo
Pyricularia oryzae = details: foliage spray on rice seedlings (cv. […]), number of lesions six days after the inoculation
Sphaerotheca fuliginea = test: Controlling effect on Sphaerotheca fuliginea by foliage application (pot experiment); details: foliage spray on cucumber (cv. TSUKUBASHIROIBO) first leaves, infected area after 10 days in greenhouse at 20° C.
Protocol: The following Test Examples illustrate the effects of the fungicide of the present invention. (I. Controlling effects on various plant diseases by foliage application (pot experiment)) A test compound was dissolved in a small amount of N,N-dimethylformamide, and the solution was diluted to a given concentration with distilled water containing a spreader. Thus, a liquid sample to be tested was prepared. The liquid sample was sprayed to test plants, and 24 hours thereafter, pathogens were inoculated by the method described below. […] Seeds of cucumber ([…]) were sown in plastic cups (each 9 cm in diameter), followed by cultivation for 2 to 3 weeks. The liquid test sample in the form of a solution or suspension was sprayed on the surface of their first leaves. The pathogen was inoculated to the leaves by spraying a conidia suspension of Sphaerotheca fuliginea which had been cultured on the cucumber leaves. After the inoculation, the plants were kept in a greenhouse at 20° C. for 10 days. Then, the infected area on the leaf was observed, and the percent control was calculated.

[1] = tested on: Erysiphe graminis f. sp. tritici; test: Controlling effect on Erysiphe graminis f. sp. tritici by foliage application (pot experiment); details: foliage spray on wheat (cv. NORIN No. 61) seedlings, infected area after 10 days in greenhouse at 20° C.
Protocol: The following Test Examples illustrate the effects of the fungicide of the present invention. (I. Controlling effects on various plant diseases by foliage application (pot experiment)) A test compound was dissolved in a small amount of N,N-dimethylformamide, and the solution was diluted to a given concentration with distilled water containing a spreader. Thus, a liquid sample to be tested was prepared. The liquid sample was sprayed to test plants, and 24 hours thereafter, pathogens were inoculated by the method described below. […] The seeds of wheat (cv.: NORIN No. 61) were sown in plastic cups (each 9 cm in diameter), followed by cultivation for 2 to 3 weeks. The test compound in the form of a solution or suspension was sprayed to the seedlings, and conidia of Erysiphe graminis f. sp. tritici cultured on wheat leaves were dropped on the test plants to inoculate the plants with the pathogen. After the inoculation, the plants were kept in a greenhouse at 20° C. for 10 days. The infected area on the leaf was observed, and the percent control was calculated.

[2] = tested on: Pseudoperonospora cubensis; test: Controlling effect on Pseudoperonospora cubensis by foliage application (pot experiment); details: foliage spray on cucumber (var. TSUKUBASHIROIBO) first leaves, lesion area after 10 days in moist chamber at 20° C.
Protocol: The following Test Examples illustrate the effects of the fungicide of the present invention. (I. Controlling effects on various plant diseases by foliage application (pot experiment)) A test compound was dissolved in a small amount of N,N-dimethylformamide, and the solution was diluted to a given concentration with distilled water containing a spreader. Thus, a liquid sample to be tested was prepared. The liquid sample was sprayed to test plants, and 24 hours thereafter, pathogens were inoculated by the method described below. […] The seeds of cucumber (var.: […]) were sown in plastic cups (each 9 cm in diameter), followed by cultivation for 2 to 3 weeks. The test compound in the form of a solution or suspension was sprayed to the surface of their first leaves, and a zoosporangia suspension of Pseudoperonospora cubensis cultured on cucumber leaves was dropped on the above leaf surfaces to inoculate the test plants with the pathogen. After the inoculation, the plants were kept in a moist chamber at 20° C. for 10 days. Then, the area of the lesions around the inoculum were observed and the percent control was calculated.

## CON=C(c1cc(C)no1)c1ccccc1COc1cccc(C)c1 (single isomer, unassigned) [613A]
Pyricularia oryzae
  Controlling effect on PYricularia orYzae by foliage application at 500 ppm (percent control): 70 percent control
Sphaerotheca fuliginea
  Controlling effect on Sphaerotheca fuliginea by foliage application at 500 ppm (percent control): 100 percent control
[1]
  Controlling effect on ErYsiphe graminis f. sp. tritici by foliage application at 500 ppm (percent control): 90 percent control
[2]
  Controlling effect on Pseudoperonospora cubensis by foliage application at 500 ppm (percent control): 70 percent control

## CON=C(c1cc(C)no1)c1ccccc1CON=C(C)c1ccc(Cl)cc1 [Compound No. 2507]
Sphaerotheca fuliginea
  Controlling effect on Sphaerotheca fuliginea by foliage application at 500 ppm (percent control): 100 percent control
[2]
  Controlling effect on Pseudoperonospora cubensis by foliage application at 500 ppm (percent control): 100 percent control

## CON=C(c1cc(C)no1)c1ccccc1COc1ncc(C(F)(F)F)cc1Cl (single isomer, unassigned) [690B, 2-(3-chloro-5-trifluoromethyl-2-pyridyloxymethyl)phenyl 3-methylisoxazol-5-yl ketone O-methyloxime]
[2]
  Controlling effect on Pseudoperonospora cubensis by foliage application at 500 ppm (percent control): 100 percent control

## COC(=O)C(C)N(C(=O)Cc1ccccc1)c1c(C)cccc1C (centres unmarked) [Benalaxyl, reference compound]
[2]
  Controlling effect on Pseudoperonospora cubensis by foliage application at 500 ppm (percent control): 97 percent control

## CON=C(c1cc(C)no1)c1ccccc1COc1cccc(C)c1 (single isomer, unassigned) [613B]
Sphaerotheca fuliginea
  Controlling effect on Sphaerotheca fuliginea by foliage application at 500 ppm (percent control): 100 percent control
[1]
  Controlling effect on ErYsiphe graminis f. sp. tritici by foliage application at 500 ppm (percent control): 70 percent control
[2]
  Controlling effect on Pseudoperonospora cubensis by foliage application at 500 ppm (percent control): 100 percent control

## CON=C(c1ncon1)c1ccccc1COc1ccc(-c2ccccc2)cc1 [compound 844]
Sphaerotheca fuliginea
  Controlling effect on Sphaerotheca fuliginea by foliage application at 500 ppm (percent control): 97 percent control
[2]
  Controlling effect on Pseudoperonospora cubensis by foliage application at 500 ppm (percent control): 100 percent control

## CON=C(c1ccccc1COc1cccc(C(C)C)c1)c1nccn1C (single isomer, unassigned) [146A]
Pyricularia oryzae
  Controlling effect on PYricularia orYzae by foliage application at 500 ppm (percent control): 97 percent control
Sphaerotheca fuliginea
  Controlling effect on Sphaerotheca fuliginea by foliage application at 500 ppm (percent control): 97 percent control
[2]
  Controlling effect on Pseudoperonospora cubensis by foliage application at 500 ppm (percent control): 100 percent control

## CON=C(c1cc(C)on1)c1ccccc1COc1ccccc1C (mixture of isomers) [compound 412]
Sphaerotheca fuliginea
  Controlling effect on Sphaerotheca fuliginea by foliage application at 500 ppm (percent control): 100 percent control
[1]
  Controlling effect on ErYsiphe graminis f. sp. tritici by foliage application at 500 ppm (percent control): 70 percent control
[2]
  Controlling effect on Pseudoperonospora cubensis by foliage application at 500 ppm (percent control): 100 percent control

## CON=C(c1nnn(C)n1)c1ccccc1COc1ccc(-c2ccccc2)cc1 [compound 2044]
Sphaerotheca fuliginea
  Controlling effect on Sphaerotheca fuliginea by foliage application at 500 ppm (percent control): 97 percent control
[2]
  Controlling effect on Pseudoperonospora cubensis by foliage application at 500 ppm (percent control): 100 percent control

## CON=C(c1cc(C)no1)c1ccccc1COc1cccc(Cl)c1 (single isomer, unassigned) [606B]
Sphaerotheca fuliginea
  Controlling effect on Sphaerotheca fuliginea by foliage application at 500 ppm (percent control): 100 percent control
[2]
  Controlling effect on Pseudoperonospora cubensis by foliage application at 500 ppm (percent control): 100 percent control

## CON=C(c1nnco1)c1ccccc1COc1ccccc1Cl [compound 705]
Pyricularia oryzae
  Controlling effect on PYricularia orYzae by foliage application at 500 ppm (percent control): 70 percent control
Sphaerotheca fuliginea
  Controlling effect on Sphaerotheca fuliginea by foliage application at 500 ppm (percent control): 97 percent control
[2]
  Controlling effect on Pseudoperonospora cubensis by foliage application at 500 ppm (percent control): 100 percent control

## CON=C(c1ccccc1COc1cccc(Cl)c1)n1cncn1 [compound 266]
Pyricularia oryzae
  Controlling effect on PYricularia orYzae by foliage application at 500 ppm (percent control): 90 percent control
Sphaerotheca fuliginea
  Controlling effect on Sphaerotheca fuliginea by foliage application at 500 ppm (percent control): 97 percent control
[1]
  Controlling effect on ErYsiphe graminis f. sp. tritici by foliage application at 500 ppm (percent control): 97 percent control

## CON=C(c1ccno1)c1ccccc1COc1ccc(Cl)cc1C (single isomer, unassigned) [541A]
Sphaerotheca fuliginea
  Controlling effect on Sphaerotheca fuliginea by foliage application at 500 ppm (percent control): 100 percent control
[1]
  Controlling effect on ErYsiphe graminis f. sp. tritici by foliage application at 500 ppm (percent control): 90 percent control
[2]
  Controlling effect on Pseudoperonospora cubensis by foliage application at 500 ppm (percent control): 100 percent control

## CON=C(c1nnn(C)n1)c1ccccc1COc1ccc(C)cc1 [compound 2014]
Sphaerotheca fuliginea
  Controlling effect on Sphaerotheca fuliginea by foliage application at 500 ppm (percent control): 100 percent control
[2]
  Controlling effect on Pseudoperonospora cubensis by foliage application at 500 ppm (percent control): 100 percent control

## CON=C(c1ccccc1COc1cccc(Cl)c1)n1cnc(C)c1 [compound 226]
Pyricularia oryzae
  Controlling effect on PYricularia orYzae by foliage application at 500 ppm (percent control): 70 percent control
Sphaerotheca fuliginea
  Controlling effect on Sphaerotheca fuliginea by foliage application at 500 ppm (percent control): 70 percent control
[1]
  Controlling effect on ErYsiphe graminis f. sp. tritici by foliage application at 500 ppm (percent control): 70 percent control

## CON=C(c1cc(C)no1)c1ccccc1COc1cccc(Cl)c1 (single isomer, unassigned) [606A]
Sphaerotheca fuliginea
  Controlling effect on Sphaerotheca fuliginea by foliage application at 500 ppm (percent control): 100 percent control
[1]
  Controlling effect on ErYsiphe graminis f. sp. tritici by foliage application at 500 ppm (percent control): 70 percent control
[2]
  Controlling effect on Pseudoperonospora cubensis by foliage application at 500 ppm (percent control): 95 percent control

## CON=C(c1cc(C)no1)c1ccccc1COc1ccc(Cl)cc1 (single isomer, unassigned) [607B]
Sphaerotheca fuliginea
  Controlling effect on Sphaerotheca fuliginea by foliage application at 500 ppm (percent control): 97 percent control
[1]
  Controlling effect on ErYsiphe graminis f. sp. tritici by foliage application at 500 ppm (percent control): 70 percent control
[2]
  Controlling effect on Pseudoperonospora cubensis by foliage application at 500 ppm (percent control): 97 percent control

## CON=C(c1noc(C)n1)c1ccccc1COc1ccccc1Cl [compound 905]
Sphaerotheca fuliginea
  Controlling effect on Sphaerotheca fuliginea by foliage application at 500 ppm (percent control): 90 percent control
[2]
  Controlling effect on Pseudoperonospora cubensis by foliage application at 500 ppm (percent control): 99 percent control

## CON=C(c1ccccc1COc1cccc(Cl)c1)c1nccn1C (single isomer, unassigned) [106B]
Sphaerotheca fuliginea
  Controlling effect on Sphaerotheca fuliginea by foliage application at 500 ppm (percent control): 97 percent control
[2]
  Controlling effect on Pseudoperonospora cubensis by foliage application at 500 ppm (percent control): 100 percent control

## CON=C(c1ccccc1COc1ccc(Cl)cc1)c1nccn1C (single isomer, unassigned) [107A]
Pyricularia oryzae
  Controlling effect on PYricularia orYzae by foliage application at 500 ppm (percent control): 90 percent control
Sphaerotheca fuliginea
  Controlling effect on Sphaerotheca fuliginea by foliage application at 500 ppm (percent control): 100 percent control
[1]
  Controlling effect on ErYsiphe graminis f. sp. tritici by foliage application at 500 ppm (percent control): 70 percent control

## CON=C(c1cc(C)no1)c1ccccc1COc1ccccc1C (single isomer, unassigned) [612B]
Sphaerotheca fuliginea
  Controlling effect on Sphaerotheca fuliginea by foliage application at 500 ppm (percent control): 100 percent control
[1]
  Controlling effect on ErYsiphe graminis f. sp. tritici by foliage application at 500 ppm (percent control): 100 percent control
[2]
  Controlling effect on Pseudoperonospora cubensis by foliage application at 500 ppm (percent control): 100 percent control

## CON=C(c1ccon1)c1ccccc1COc1cccc(C(F)(F)F)c1 (mixture of isomers) [compound 322]
Pyricularia oryzae
  Controlling effect on PYricularia orYzae by foliage application at 500 ppm (percent control): 70 percent control
Sphaerotheca fuliginea
  Controlling effect on Sphaerotheca fuliginea by foliage application at 500 ppm (percent control): 100 percent control
[1]
  Controlling effect on ErYsiphe graminis f. sp. tritici by foliage application at 500 ppm (percent control): 70 percent control
